Target: KRAS G12C and cRAF (Ras-binding domain) interaction (Homo sapiens (Human), UniProt P01116, C118S/C51S/C80L/G12C)
Assay: Inhibition of KRAS G12C and cRAF binding (AlphaScreen)
Settings: GMPPNP-loaded KRAS G12C, 19-20 hours incubation with compound; read-out: IC50 (Inhibition of KRAS G12C and cRAF Binding)
How it was run: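 IC50 values come from 4-parameter nonlinear regression of AlphaScreen signal (680 nm excitation, 570 nm emission). Compound plates sat 19-20 h at room temperature before RBD and donor/acceptor beads were added in Hepes pH 7.4 buffer with 150 mM NaCl, 5 mM MgCl2, 2% DMSO for 60-90 min; biotin-AviTag-GST replaced RBD to flag assay-technology interferers.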

Sequence of KRAS G12C and cRAF (Ras-binding domain) interaction (P01116 other isoform, or with tags, fused parts or gaps G12C/C51S/C80L/C118S): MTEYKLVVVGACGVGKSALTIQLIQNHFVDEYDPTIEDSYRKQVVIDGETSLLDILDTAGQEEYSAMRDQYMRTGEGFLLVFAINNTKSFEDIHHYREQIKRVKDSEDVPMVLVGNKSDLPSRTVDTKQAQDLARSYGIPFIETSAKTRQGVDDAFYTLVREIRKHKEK

| Structure (SMILES) | IC50 |
| --- | --- |
| COC/C=C/C(=O)N1CCC(N(C)c2nc(OC[C@@H]3CCCN3C)nc3c2CCN(c2cccc4cccc(Cl)c24)C3)C1 (stereo partly drawn) [Example 5, (E)-1-(3-((7-(8-chloronaphthalen-1-yl)-2-(((S)-1-methylpyrrolidin-2-yl)methoxy)-5,6,7,8-tetrahydropyrido[3,4-d]pyrimidin-4-yl)(methyl)amino)pyrrolidin-1-yl)-4-methoxybut-2-en-1-one] | > 500 nM |
| COC(=O)/C=C/C(=O)N1CCC(N(C)c2nc(OC[C@@H]3CCCN3C)nc3c2CCN(c2cccc4cccc(Cl)c24)C3)C1 (stereo partly drawn) [Example 6, methyl(E)-4-(3-((7-(8-chloronaphthalen-1-yl)-2-(((S)-1-methylpyrrolidin-2-yl)methoxy)-5,6,7,8-tetrahydropyrido[3,4-d]pyrimidin-4-yl)(methyl)amino)pyrrolidin-1-yl)-4-oxobut-2-enoate] | 10 to 100 nM |
| COC(=O)/C=C\C(=O)N1CCC(N(C)c2nc(OC[C@@H]3CCCN3C)nc3c2CCN(c2cccc4cccc(Cl)c24)C3)C1 (stereo partly drawn) [Example 7, methyl (Z)-4-(3-((7-(8-chloronaphthalen-1-yl)-2-(((S)-1-methylpyrrolidin-2-yl)methoxy)-5,6,7,8-tetrahydropyrido[3,4-d]pyrimidin-4-yl)(methyl)amino)pyrrolidin-1-yl)-4-oxobut-2-enoate] | > 500 nM |
| CN(c1nc(OC[C@@H]2CCCN2C)nc2c1CCN(c1cccc3cccc(Cl)c13)C2)C1CCN(C(=O)/C=C/C(=O)O)C1 (stereo partly drawn) [Example 8, (E)-4-(3-((7-(8-chloronaphthalen-1-yl)-2-(((S)-1-methylpyrrolidin-2-yl)methoxy)-5,6,7,8-tetrahydropyrido[3,4-d]pyrimidin-4-yl)(methyl)amino)pyrrolidin-1-yl)-4-oxobut-2-enoic acid] | 100 to 500 nM |
| CN1CCC[C@H]1COc1nc2c(c(N(C)[C@@H]3CCN(C(=O)/C=C/S(C)(=O)=O)C3)n1)CCN(c1cccc3cccc(Cl)c13)C2 [Example 9, (E)-1-((R)-3-((7-(8-chloronaphthalen-1-yl)-2-(((S)-1-methylpyrrolidin-2-yl)methoxy)-5,6,7,8-tetrahydropyrido[3,4-d]pyrimidin-4-yl)(methyl)amino)pyrrolidin-1-yl)-3-(methylsulfonyl)prop-2-en-1-one] | < 10 nM |
| COC(=O)/C=C/C(=O)N1CC[C@@H](N(C)c2nc(OC[C@@H]3CCCN3C)nc3c2CCN(c2cccc4cccc(Cl)c24)C3)C1 [Example 10, methyl(E)-4-((R)-3-((7-(8-chloronaphthalen-1-yl)-2-(((S)-1-methylpyrrolidin-2-yl)methoxy)-5,6,7,8-tetrahydropyrido[3,4-d]pyrimidin-4-yl)(methyl)amino)pyrrolidin-1-yl)-4-oxobut-2-enoate] | 10 to 100 nM |
| CC(C)OC(=O)/C=C/C(=O)N1CC[C@@H](N(C)c2nc(OC[C@@H]3CCCN3C)nc3c2CCN(c2cccc4cccc(Cl)c24)C3)C1 [Example 11, isopropyl(E)-4-((R)-3-((7-(8-chloronaphthalen-1-yl)-2-(((S)-1-methylpyrrolidin-2-yl)methoxy)-5,6,7,8-tetrahydropyrido[3,4-d]pyrimidin-4-yl)(methyl)amino)pyrrolidin-1-yl)-4-oxobut-2-enoate] | 10 to 100 nM |
| CCN(CCNC(=O)/C=C/C(=O)OC)c1nc(OC[C@@H]2CCCN2C)nc2c1CCN(c1cccc3cccc(Cl)c13)C2 [Example 12, methyl(S,E)-4-((2-((7-(8-chloronaphthalen-1-yl)-2-((1-methylpyrrolidin-2-yl)methoxy)-5,6,7,8-tetrahydropyrido[3,4-d]pyrimidin-4-yl)(ethyl)amino)ethyl)amino)-4-oxobut-2-enoate] | > 500 nM |
| COC(=O)/C=C/C(=O)NCCN(C)c1nc(OCC23CCCN2CCC3)nc2c1CCN(c1cccc3cccc(Cl)c13)C2 [Example 13, Methyl(E)-4-((2-((7-(8-chloronaphthalen-1-yl)-2-((tetrahydro-1H-pyrrolizin-7a(5H)-yl)methoxy)-5,6,7,8-tetrahydropyrido[3,4-d]pyrimidin-4-yl)(methyl)amino)ethyl)amino)-4-oxobut-2-enoate] | 10 to 100 nM |
| COC(=O)/C=C/C(=O)NC1CCN(c2nc(OC[C@@H]3CCCN3C)nc3c2CCN(c2cccc4cccc(Cl)c24)C3)C1 (stereo partly drawn) [Example 14, methyl(E)-4-((1-(7-(8-chloronaphthalen-1-yl)-2-(((S)-1-methylpyrrolidin-2-yl)methoxy)-5,6,7,8-tetrahydropyrido[3,4-d]pyrimidin-4-yl)pyrrolidin-3-yl)amino)-4-oxobut-2-enoate] | > 500 nM |
| CN1CCC[C@H]1COc1nc2c(c(N(C)[C@H]3CCN(C(=O)/C=C/S(C)(=O)=O)C3)n1)CCN(c1cccc3cccc(Cl)c13)C2 [Example 15, (E)-1-((S)-3-((7-(8-chloronaphthalen-1-yl)-2-(((S)-1-methylpyrrolidin-2-yl)methoxy)-5,6,7,8-tetrahydropyrido[3,4-d]pyrimidin-4-yl)(methyl)amino)pyrrolidin-1-yl)-3-(methylsulfonyl)prop-2-en-1-one] | < 10 nM |
| COC(=O)/C=C/C(=O)N1CC(CN(C)c2nc(OC[C@@H]3CCCN3C)nc3c2CCN(c2cccc4cccc(Cl)c24)C3)C1 [Example 16, methyl(S,E)-4-(3-(((7-(8-chloronaphthalen-1-yl)-2-((1-methylpyrrolidin-2-yl)methoxy)-5,6,7,8-tetrahydropyrido[3,4-d]pyrimidin-4-yl)(methyl)amino)methyl)azetidin-1-yl)-4-oxobut-2-enoate] | 10 to 100 nM |
| COC(=O)/C=C/C(=O)N1C[C@H](N(C)c2nc(OC[C@@H]3CCCN3C)nc3c2CCN(c2cccc4cccc(Cl)c24)C3)C[C@H]1C [Example 17, methyl(E)-4-((2R,4R)-4-((7-(8-chloronaphthalen-1-yl)-2-(((S)-1-methylpyrrolidin-2-yl)methoxy)-5,6,7,8-tetrahydropyrido[3,4-d]pyrimidin-4-yl)(methyl)amino)-2-methylpyrrolidin-1-yl)-4-oxobut-2-enoate] | 10 to 100 nM |
| CC(C)OC(=O)/C=C/C(=O)N1CC[C@@H](N(C)c2nc(OCC34CCCN3CCC4)nc3c2CCN(c2cccc4cccc(Cl)c24)C3)C1 [Example 18, isopropyl(R,E)-4-(3-((7-(8-chloronaphthalen-1-yl)-2-((tetrahydro-1H-pyrrolizin-7a(5H)-yl)methoxy)-5,6,7,8-tetrahydropyrido[3,4-d]pyrimidin-4-yl)(methyl)amino)pyrrolidin-1-yl)-4-oxobut-2-enoate] | < 10 nM |
| C=CC(=O)N1CC[C@@H](N(C)c2nc(OCC34CCCN3CCC4)nc3c2CCN(c2cccc4cccc(Cl)c24)C3)C1 [Example 19, (R)-1-(3-((7-(8-chloronaphthalen-1-yl)-2-((tetrahydro-1H-pyrrolizin-7a(5H)-yl)methoxy)-5,6,7,8-tetrahydropyrido[3,4-d]pyrimidin-4-yl)(methyl)amino)pyrrolidin-1-yl)prop-2-en-1-one] | 10 to 100 nM |
| COC(=O)/C=C/C(=O)N1C[C@H](N(C)c2nc(OCC34CCCN3CCC4)nc3c2CCN(c2cccc4cccc(Cl)c24)C3)C[C@@H]1C [Example 20, methyl(E)-4-((2S,4R)-4-((7-(8-chloronaphthalen-1-yl)-2-((tetrahydro-1H-pyrrolizin-7a(5H)-yl)methoxy)-5,6,7,8-tetrahydropyrido[3,4-d]pyrimidin-4-yl)(methyl)amino)-2-methylpyrrolidin-1-yl)-4-oxobut-2-enoate] | 10 to 100 nM |
| CN(CCNC(=O)/C=C/C(=O)O)c1nc(OC[C@@H]2CCCN2C)nc2c1CCN(c1cccc3cccc(Cl)c13)C2 [Example 21, (S,E)-4-((2-((7-(8-chloronaphthalen-1-yl)-2-((1-methylpyrrolidin-2-yl)methoxy)-5,6,7,8-tetrahydropyrido[3,4-d]pyrimidin-4-yl)(methyl)amino)ethyl)amino)-4-oxobut-2-enoic acid] | > 500 nM |
| COC(=O)/C=C/C(=O)NCCN(C)c1nc(OC[C@@H]2CCCN2C)nc2c1CCN(c1cccc3cccc(Cl)c13)C2 [Example 22, methyl(S,E)-4-((2-((7-(8-chloronaphthalen-1-yl)-2-((1-methylpyrrolidin-2-yl)methoxy)-5,6,7,8-tetrahydropyrido[3,4-d]pyrimidin-4-yl)(methyl)amino)ethyl)amino)-4-oxobut-2-enoate] | 100 to 500 nM |
| CN(CCNC(=O)/C=C/S(C)(=O)=O)c1nc(OC[C@@H]2CCCN2C)nc2c1CCN(c1cccc3cccc(Cl)c13)C2 [Example 23, (S,E)-N-(2-((7-(8-chloronaphthalen-1-yl)-2-((1-methylpyrrolidin-2-yl)methoxy)-5,6,7,8-tetrahydropyrido[3,4-d]pyrimidin-4-yl)(methyl)amino)ethyl)-3-(methylsulfonyl)acrylamide] | 10 to 100 nM |
| COC(=O)/C=C/C(=O)N1CCC(N(C)c2nc(OC[C@@H]3CCCN3C)nc3c(F)c(-c4cccc5cccc(Cl)c45)ncc23)C1 (stereo partly drawn) [Example 24, methyl(E)-4-(3-((7-(8-chloronaphthalen-1-yl)-8-fluoro-2-(((S)-1-methylpyrrolidin-2-yl)methoxy)pyrido[4,3-d]pyrimidin-4-yl)(methyl)amino)pyrrolidin-1-yl)-4-oxobut-2-enoate] | < 10 nM |
| COC(=O)/C=C/C(=O)N1CC(CN(C)c2nc(OCC34CCCN3CCC4)nc3c(F)c(-c4cccc5cccc(Cl)c45)ncc23)C1 [Example 25, methyl(E)-4-(3-(((7-(8-chloronaphthalen-1-yl)-8-fluoro-2-((tetrahydro-1H-pyrrolizin-7a(5H)-yl)methoxy)pyrido[4,3-d]pyrimidin-4-yl)(methyl)amino)methyl)azetidin-1-yl)-4-oxobut-2-enoate] | < 10 nM |
| COC(=O)/C=C/C(=O)N1CC[C@H](N(C)c2nc(OC[C@@H]3CCCN3C)nc3c(F)c(-c4cccc5cccc(Cl)c45)ncc23)C1 [Example 26, methyl(E)-4-((S)-3-((7-(8-chloronaphthalen-1-yl)-8-fluoro-2-(((S)-1-methylpyrrolidin-2-yl)methoxy)pyrido[4,3-d]pyrimidin-4-yl)(methyl)amino)pyrrolidin-1-yl)-4-oxobut-2-enoate] | > 500 nM |

Reference: patent US20250019387A1 (Frontier Medicines Corporation, priority 0001, published 2025)
